From article PMC9867533, “A New Anticancer Semisynthetic Theobromine Derivative Targeting EGFR Protein: CADDD Study” (Life, 2023)
pIC50: −log10 of the molar value.

Target: EGFR^WT (Homo sapiens, UniProt P00533)
Assay: in vitro EGFR kinase inhibition assay (human EGFR ELISA kit)
Assay type: biochemical

Sequence of EGFR^WT (P00533 25-1210): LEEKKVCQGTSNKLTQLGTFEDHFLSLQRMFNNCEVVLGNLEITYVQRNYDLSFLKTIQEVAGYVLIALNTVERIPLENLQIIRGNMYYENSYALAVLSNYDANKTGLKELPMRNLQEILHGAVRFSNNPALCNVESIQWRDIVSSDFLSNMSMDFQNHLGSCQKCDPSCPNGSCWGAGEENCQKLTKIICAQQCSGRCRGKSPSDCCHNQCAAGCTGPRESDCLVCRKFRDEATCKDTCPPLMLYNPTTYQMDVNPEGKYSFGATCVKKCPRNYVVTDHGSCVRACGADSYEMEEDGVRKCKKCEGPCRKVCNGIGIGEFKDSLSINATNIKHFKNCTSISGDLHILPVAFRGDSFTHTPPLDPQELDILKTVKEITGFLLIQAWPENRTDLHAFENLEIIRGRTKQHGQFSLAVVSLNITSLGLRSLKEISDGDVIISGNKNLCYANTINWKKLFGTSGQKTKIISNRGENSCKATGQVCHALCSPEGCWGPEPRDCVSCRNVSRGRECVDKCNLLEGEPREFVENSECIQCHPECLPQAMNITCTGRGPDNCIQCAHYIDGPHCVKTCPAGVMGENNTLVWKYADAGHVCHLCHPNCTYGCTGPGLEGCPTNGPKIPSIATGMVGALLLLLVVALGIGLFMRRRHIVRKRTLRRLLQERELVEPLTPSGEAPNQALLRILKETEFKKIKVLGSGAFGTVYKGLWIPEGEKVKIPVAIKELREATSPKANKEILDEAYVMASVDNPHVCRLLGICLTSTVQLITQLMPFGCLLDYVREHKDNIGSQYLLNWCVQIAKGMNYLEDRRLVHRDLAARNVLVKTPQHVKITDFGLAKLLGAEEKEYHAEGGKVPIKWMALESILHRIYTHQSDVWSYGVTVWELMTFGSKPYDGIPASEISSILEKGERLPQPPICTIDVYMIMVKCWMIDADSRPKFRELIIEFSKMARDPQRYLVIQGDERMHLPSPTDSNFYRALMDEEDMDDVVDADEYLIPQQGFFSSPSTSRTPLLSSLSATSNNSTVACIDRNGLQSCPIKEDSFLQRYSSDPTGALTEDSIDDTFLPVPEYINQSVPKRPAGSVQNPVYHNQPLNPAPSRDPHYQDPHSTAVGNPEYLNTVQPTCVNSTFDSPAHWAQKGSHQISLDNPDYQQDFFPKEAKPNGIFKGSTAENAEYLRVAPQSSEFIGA

Cn1cnc2c1c(=O)n(CC(=O)Nc1ccc(Cl)cc1)c(=O)n2C [T-1-PCPA, N-(4-Chlorophenyl)-2-(3,7-dimethyl-2,6-dioxo-2,3,6,7-tetrahydro-1H-purin-1-yl)acetamide] gave a pIC50 of 7.60.
